Assay results reported in patent US20260015350A1, “AZAQUINAZOLINE PAN-KRAS INHIBITORS” (Mirati Therapeutics, Inc., priority 2022, published 2026).

Legend:
[1] = test system: KRas-mediated phosphorylation of ERK in AsPC-1 cells; test: Inhibition of KRas-mediated phosphorylation of ERK (Cisbio HTRF pERK), AsPC-1 cells; assay type: cell-based; conditions: Homo sapiens; for IC50: ASPC1, AsPC-1 cells, HTRF pERK
Procedure, shortened: (§1)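 H358, H727, H460 and AsPC-1 cells seeded at 6,000/well, treated 3 hrs with 10-dose 3-fold dilutions from 10 uM (0.8% DMSO); 0.2 uM trametinib as min control. Lysed 40 min at 4° C; lysate incubated 2 hrs at room temperature with d2/cryptate antibodies, HTRF read.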

[2] = test system: KRas-mediated phosphorylation of ERK in H727 cells; test: Inhibition of KRas-mediated phosphorylation of ERK (Cisbio HTRF pERK), H727 cells; assay type: cell-based; conditions: Homo sapiens; for IC50: NCI-H727, H727 cells, HTRF pERK
Procedure, shortened: as §1

KRas^G13D = target: T1, KRas^G13D (Homo sapiens, UniProt P01116, G13D); test: KRas binding assay (TR-FRET tracer displacement), KRas G13D; conditions: TR-FRET tracer displacement, KRas G13D
T1 construct: Biotinylated KRas (corresponding to amino acids 1-169, produced at Accelegan Inc.); biotin (biotinylated); purchased Accelegan Inc
T1 sequence (P01116 1-169 isoform P01116-2 G13D): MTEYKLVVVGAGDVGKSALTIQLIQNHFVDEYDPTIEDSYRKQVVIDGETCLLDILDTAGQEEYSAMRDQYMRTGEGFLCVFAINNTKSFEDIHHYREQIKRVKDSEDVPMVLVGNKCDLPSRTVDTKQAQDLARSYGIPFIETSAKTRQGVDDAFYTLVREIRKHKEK

KRas^Q61H = target: T2, KRas^Q61H (Homo sapiens, UniProt P01116, Q61H); test: KRas binding assay (TR-FRET tracer displacement), KRas Q61H; conditions: TR-FRET tracer displacement, KRas Q61H
T2 construct: Biotinylated KRas (corresponding to amino acids 1-169, produced at Accelegan Inc.); biotin (biotinylated); purchased Accelegan Inc
T2 sequence (P01116 1-169 isoform P01116-2 Q61H): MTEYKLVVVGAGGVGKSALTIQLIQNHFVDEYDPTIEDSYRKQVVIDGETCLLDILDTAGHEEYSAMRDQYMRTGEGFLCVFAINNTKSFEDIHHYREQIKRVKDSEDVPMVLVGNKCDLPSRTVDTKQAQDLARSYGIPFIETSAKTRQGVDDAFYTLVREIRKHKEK

KRas^G12R = target: T3, KRas^G12R (Homo sapiens, UniProt P01116, G12R); test: KRas binding assay (TR-FRET tracer displacement), KRas G12R
T3 construct: Biotinylated KRas (corresponding to amino acids 1-169, produced at Accelegan Inc.); biotin (biotinylated); purchased Accelegan Inc
T3 sequence (P01116 1-169 isoform P01116-2 G12R): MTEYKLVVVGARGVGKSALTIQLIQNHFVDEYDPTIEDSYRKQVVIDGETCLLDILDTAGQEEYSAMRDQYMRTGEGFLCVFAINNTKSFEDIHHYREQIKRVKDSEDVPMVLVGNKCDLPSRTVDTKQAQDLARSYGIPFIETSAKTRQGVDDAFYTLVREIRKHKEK

KRas^WT = target: T4, KRas^WT (Homo sapiens, UniProt P01116); test: KRas binding assay (TR-FRET tracer displacement), KRas WT; conditions: TR-FRET tracer displacement, KRas WT
T4 construct: Biotinylated KRas (corresponding to amino acids 1-169, produced at Accelegan Inc.); biotin (biotinylated); purchased Accelegan Inc
T4 sequence (P01116 1-169 isoform P01116-2): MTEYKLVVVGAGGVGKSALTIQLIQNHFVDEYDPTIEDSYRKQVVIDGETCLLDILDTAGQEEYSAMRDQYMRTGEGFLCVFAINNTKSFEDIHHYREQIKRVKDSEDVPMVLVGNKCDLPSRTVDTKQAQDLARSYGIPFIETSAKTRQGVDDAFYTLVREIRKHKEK

KRas^G12V = target: T5, KRas^G12V (Homo sapiens, UniProt P01116, G12V); test: KRas binding assay (TR-FRET tracer displacement), KRas G12V
T5 construct: Biotinylated KRas (corresponding to amino acids 1-169, produced at Accelegan Inc.); biotin (biotinylated); purchased Accelegan Inc
T5 sequence (P01116 1-169 isoform P01116-2 G12V): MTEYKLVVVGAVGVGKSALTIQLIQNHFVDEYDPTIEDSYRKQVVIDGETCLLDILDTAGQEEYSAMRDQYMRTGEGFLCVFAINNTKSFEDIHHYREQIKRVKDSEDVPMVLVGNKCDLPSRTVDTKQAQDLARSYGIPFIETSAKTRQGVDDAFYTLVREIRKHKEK

KRas^G12D = target: T6, KRas^G12D (Homo sapiens, UniProt P01116, G12D); test: KRas binding assay (TR-FRET tracer displacement), KRas G12D
T6 construct: Biotinylated KRas (corresponding to amino acids 1-169, produced at Accelegan Inc.); biotin (biotinylated); purchased Accelegan Inc
T6 sequence (P01116 1-169 isoform P01116-2 G12D): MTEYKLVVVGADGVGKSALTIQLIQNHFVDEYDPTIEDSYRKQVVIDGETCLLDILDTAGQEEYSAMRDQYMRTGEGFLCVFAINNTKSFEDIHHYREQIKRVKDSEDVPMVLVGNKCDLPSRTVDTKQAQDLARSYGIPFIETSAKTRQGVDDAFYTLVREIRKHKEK

KRas^G12S = target: T7, KRas^G12S (Homo sapiens, UniProt P01116, G12S); test: KRas binding assay (TR-FRET tracer displacement), KRas G12S; conditions: TR-FRET tracer displacement, KRas G12S
T7 construct: Biotinylated KRas (corresponding to amino acids 1-169, produced at Accelegan Inc.); biotin (biotinylated); purchased Accelegan Inc
T7 sequence (P01116 1-169 isoform P01116-2 G12S): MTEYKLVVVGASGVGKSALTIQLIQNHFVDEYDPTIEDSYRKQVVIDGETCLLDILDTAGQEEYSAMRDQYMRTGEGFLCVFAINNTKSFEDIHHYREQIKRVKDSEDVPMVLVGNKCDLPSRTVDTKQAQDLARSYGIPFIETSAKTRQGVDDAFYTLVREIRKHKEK

KRas^G12A = target: T8, KRas^G12A (Homo sapiens, UniProt P01116, G12A); test: KRas binding assay (TR-FRET tracer displacement), KRas G12A; conditions: TR-FRET tracer displacement, KRas G12A
T8 construct: Biotinylated KRas (corresponding to amino acids 1-169, produced at Accelegan Inc.); biotin (biotinylated); purchased Accelegan Inc
T8 sequence (P01116 1-169 isoform P01116-2 G12A): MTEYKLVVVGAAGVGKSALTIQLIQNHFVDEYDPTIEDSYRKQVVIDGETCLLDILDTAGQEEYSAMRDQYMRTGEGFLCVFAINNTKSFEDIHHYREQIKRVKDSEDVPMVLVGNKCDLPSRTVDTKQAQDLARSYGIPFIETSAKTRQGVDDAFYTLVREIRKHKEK

KRas^G12C = target: T9, KRas^G12C (Homo sapiens, UniProt P01116, G12C); test: KRas binding assay (TR-FRET tracer displacement), KRas G12C; conditions: TR-FRET tracer displacement, KRas G12C
T9 construct: Biotinylated KRas (corresponding to amino acids 1-169, produced at Accelegan Inc.); biotin (biotinylated); purchased Accelegan Inc
T9 sequence (P01116 1-169 isoform P01116-2 G12C): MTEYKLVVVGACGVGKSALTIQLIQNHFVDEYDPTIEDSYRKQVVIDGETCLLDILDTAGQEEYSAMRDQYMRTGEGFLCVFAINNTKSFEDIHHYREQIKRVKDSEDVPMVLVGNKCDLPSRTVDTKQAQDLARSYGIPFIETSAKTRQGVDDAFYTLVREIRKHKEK

Row | Structure (SMILES) | IC50 [1] | IC50 [2] | IC50 (KRas^G13D) | IC50 (KRas^Q61H) | IC50 (KRas^G12R) | IC50 (KRas^WT) | IC50 (KRas^G12V) | IC50 (KRas^G12D) | IC50 (KRas^G12S) | IC50 (KRas^G12A) | IC50 (KRas^G12C) | inhibition at 0.1 µM ([1]; ASPC1, 3 h, single point, 100 nM compound, 3 hrs, AsPC-1 cells) | inhibition at 0.1 µM ([2]; NCI-H727, 3 h, single point, 100 nM compound, 3 hrs, H727 cells)
1 | Oc1cc(Cl)c(C2CC2)c(-c2ncc3c(N4CCC[C@]5(C4)C[C@@H](O)C5)nc(OCC45CCCN4CCC5)nc3c2F)c1 [Example 743, (2r,4s)-6-(7-(3-chloro-2-cyclopropyl-5-hydroxyphenyl)-8-fluoro-2-((tetrahydro-1H-pyrrolizin-7a(5H)-yl)methoxy)pyrido[4,3-d]pyrimidin-4-yl)-6-azaspiro[3.5]nonan-2-ol] | 3690 nM | 1100 nM | 9 nM | 7 nM | 20 nM | 9 nM | 3 nM | 8 nM | 8 nM | 8 nM | 6 nM | – | –
2 | O=C1NCC2(CCCN(c3nc(OCC45CCCN4CCC5)nc4c(F)c(-c5c6ccccc6cc6[nH]ncc56)ncc34)C2)N1 (stereo not drawn) [Example 756, 7-(7-(1H-benzo[f]indazol-4-yl)-8-fluoro-2-((hexahydro-1H-pyrrolizin-7a-yl)methoxy)pyrido[4,3-d]pyrimidin-4-yl)-1,3,7-triazaspiro[4.5]decan-2-one] | > 10000 nM | > 10000 nM | 13 nM | 13 nM | 17 nM | 13 nM | 10 nM | 11 nM | 13 nM | 14 nM | 12 nM | – | –
3 | O=C1NCC2(CCCN(c3nc(OC[C@@]45CCCN4C[C@H](F)C5)nc4c(F)c(-c5c6ccccc6cc6[nH]ncc56)ncc34)C2)N1 (stereo partly drawn) [Example 760, 7-(7-(1H-benzo[f]indazol-4-yl)-8-fluoro-2-(((2R,7aS)-2-fluorohexahydro-1H-pyrrolizin-7a-yl)methoxy)pyrido[4,3-d]pyrimidin-4-yl)-1,3,7-triazaspiro[4.5]decan-2-one] | > 10000 nM | > 10000 nM | 72 nM | 66 nM | 170 nM | 88 nM | 67 nM | 76 nM | 76 nM | 91 nM | 73 nM | – | –
4 | Oc1cc(-c2ncc3c(N4C[C@@H]5C[C@H](C4)[C@H](O)C5)nc(OC[C@@]45CCCN4C[C@H](F)C5)nc3c2F)c2ccccc2c1Cl [Example 764, (1R,5R,6R)-3-(7-(4-chloro-3-hydroxynaphthalen-1-yl)-8-fluoro-2-(((2R,7aS)-2-fluorohexahydro-1H-pyrrolizin-7a-yl)methoxy)pyrido[4,3-d]pyrimidin-4-yl)-3-azabicyclo[3.2.1]octan-6-ol] | > 10000 nM | > 10000 nM | 2410 nM | 3930 nM | 3120 nM | 3090 nM | 1660 nM | 5530 nM | 1690 nM | 2410 nM | 2390 nM | – | –
5 | CCc1cccc2cc3[nH]ncc3c(-c3ncc4c(N5CCCC6(CC(=O)N6)C5)nc(OC[C@@]56CCCN5C[C@H](F)C6)nc4c3F)c12 (stereo partly drawn) [Example 771, 6-(7-(5-ethyl-1H-benzo[f]indazol-4-yl)-8-fluoro-2-(((2R,7aS)-2-fluorohexahydro-1H-pyrrolizin-7a-yl)methoxy)pyrido[4,3-d]pyrimidin-4-yl)-1,6-diazaspiro[3.5]nonan-2-one] | 1370 nM | 897 nM | 11 nM | 7 nM | 4 nM | 12 nM | 4 nM | 5 nM | 9 nM | 10 nM | 8 nM | – | –
6 | Oc1cc(-c2ncc3c(N4C[C@@H]5C[C@H](C4)[C@H](O)C5)nc(OC[C@@]45CCCN4C[C@H](F)C5)nc3c2F)c2ccccc2c1C(F)(F)F [Example 782, (1R,5R,6R)-3-(8-fluoro-2-(((2R,7aS)-2-fluorohexahydro-1H-pyrrolizin-7a-yl)methoxy)-7-(3-hydroxy-4-(trifluoromethyl)naphthalen-1-yl)pyrido[4,3-d]pyrimidin-4-yl)-3-azabicyclo[3.2.1]octan-6-ol] | – | – | 2550 nM | 4050 nM | 3740 nM | 4220 nM | 2040 nM | 4650 nM | 2570 nM | 4370 nM | 2780 nM | 5% | -11%

Further lines, with some results ahead:

Row | IC50 [1] | IC50 [2] | IC50 (KRas^G13D) | IC50 (KRas^Q61H) | IC50 (KRas^G12R) | IC50 (KRas^WT) | IC50 (KRas^G12V) | IC50 (KRas^G12D) | IC50 (KRas^G12S) | IC50 (KRas^G12A) | IC50 (KRas^G12C) | Structure (SMILES) | inhibition at 0.1 µM ([1]; ASPC1, 3 h, single point, 100 nM compound, 3 hrs, AsPC-1 cells) | inhibition at 0.1 µM ([2]; NCI-H727, 3 h, single point, 100 nM compound, 3 hrs, H727 cells)
7 | > 10000 nM | > 10000 nM | < 2 nM | < 2 nM | < 2 nM | < 2 nM | < 2 nM | 3 nM | < 2 nM | 2 nM | < 2 nM | O=C1NC(=O)C2(CCCN(c3nc(OCC45CCCN4CCC5)nc4c(F)c(-c5cc(O)cc(Cl)c5C5CC5)ncc34)C2)N1 (stereo not drawn) [Example 739, 7-(7-(3-chloro-2-cyclopropyl-5-hydroxyphenyl)-8-fluoro-2-((hexahydro-1H-pyrrolizin-7a-yl)methoxy)pyrido[4,3-d]pyrimidin-4-yl)-1,3,7-triazaspiro[4.5]decane-2,4-dione] | – | –
8 | > 10000 nM | > 10000 nM | 3 nM | < 2 nM | < 2 nM | < 2 nM | < 2 nM | < 2 nM | < 2 nM | 2 nM | < 2 nM | O=C1NCC2(CCCN(c3nc(OCC45CCCN4CCC5)nc4c(F)c(-c5cc(O)cc(Cl)c5C5CC5)ncc34)C2)N1 (stereo not drawn) [Example 741, 7-(7-(3-chloro-2-cyclopropyl-5-hydroxyphenyl)-8-fluoro-2-((hexahydro-1H-pyrrolizin-7a-yl)methoxy)pyrido[4,3-d]pyrimidin-4-yl)-1,3,7-triazaspiro[4.5]decan-2-one] | – | –
9 | > 10000 nM | > 10000 nM | 11 nM | 9 nM | 9 nM | 13 nM | 11 nM | 16 nM | 11 nM | 14 nM | 11 nM | O=C1NC(=O)C2(CCCN(c3nc(OCC45CCCN4CCC5)nc4c(F)c(-c5c6ccccc6cc6[nH]ncc56)ncc34)C2)N1 (stereo not drawn) [Example 755, 7-(7-(1H-benzo[f]indazol-4-yl)-8-fluoro-2-((hexahydro-1H-pyrrolizin-7a-yl)methoxy)pyrido[4,3-d]pyrimidin-4-yl)-1,3,7-triazaspiro[4.5]decane-2,4-dione] | – | –
10 | > 10000 nM | > 10000 nM | 7 nM | 5 nM | 6 nM | 8 nM | 4 nM | 8 nM | 7 nM | 8 nM | 7 nM | O=C1NC(=O)C2(CCCN(c3nc(OC[C@@]45CCCN4C[C@H](F)C5)nc4c(F)c(-c5c6ccccc6cc6[nH]ncc56)ncc34)C2)N1 (stereo partly drawn) [Example 759, 7-(7-(1H-benzo[f]indazol-4-yl)-8-fluoro-2-(((2R,7aS)-2-fluorohexahydro-1H-pyrrolizin-7a-yl)methoxy)pyrido[4,3-d]pyrimidin-4-yl)-1,3,7-triazaspiro[4.5]decane-2,4-dione] | – | –
11 | > 10000 nM | > 10000 nM | 1210 nM | 954 nM | 1880 nM | 980 nM | 988 nM | 2200 nM | 824 nM | 1160 nM | 927 nM | Cc1c(Cl)cc2[nH]ncc2c1-c1ncc2c(N3CCC[C@]4(C3)NC(=O)NC4=O)nc(OCC34CCCN3CCC4)nc2c1F [Example 766, (5R)-7-(7-(6-chloro-5-methyl-1H-indazol-4-yl)-8-fluoro-2-((hexahydro-1H-pyrrolizin-7a-yl)methoxy)pyrido[4,3-d]pyrimidin-4-yl)-1,3,7-triazaspiro[4.5]decane-2,4-dione] | – | –
12 | > 10000 nM | 9390 nM | < 2 nM | < 2 nM | 2 nM | < 2 nM | < 2 nM | 2 nM | < 2 nM | < 2 nM | < 2 nM | O=C1NC(=O)[C@]2(CCCN(c3nc(OCC45CCCN4CCC5)nc4c(F)c(-c5c(C6CC6)c(Cl)cc6[nH]ncc56)ncc34)C2)N1 [Example 779, (5R)-7-(7-(6-chloro-5-cyclopropyl-1H-indazol-4-yl)-8-fluoro-2-((hexahydro-1H-pyrrolizin-7a-yl)methoxy)pyrido[4,3-d]pyrimidin-4-yl)-1,3,7-triazaspiro[4.5]decane-2,4-dione] | – | –
